Reference: patent US10167279B2 (NOVARTIS AG, priority 2014, dated 2019)

target: C-Raf FL (Homo sapiens (Human), UniProt P04049, Y340E/Y341E); assay: In vitro Raf activity determination (Alpha Screen, phospho-MEK), C-Raf FL (full length, Y340E/Y341E); type: biochemical; settings: ATP 1 μM; 60 min pre-incubation; 1 hour reaction; column head does not say FL or TR
Procedure, shortened: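 Read-out is AlphaScreen luminescence using rabbit anti-p-MEK with protein A beads after EDTA stop, with IC50 fitted by non-linear regression. Reaction: Sf9-derived C-Raf plus biotinylated E. coli MEK1 K97R substrate, pH 7.5 Tris/MgCl2/DTT buffer, compound preincubated 60 min at room temperature.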

C-Raf FL, sequence (P04049 whole entry Y340E/Y341E): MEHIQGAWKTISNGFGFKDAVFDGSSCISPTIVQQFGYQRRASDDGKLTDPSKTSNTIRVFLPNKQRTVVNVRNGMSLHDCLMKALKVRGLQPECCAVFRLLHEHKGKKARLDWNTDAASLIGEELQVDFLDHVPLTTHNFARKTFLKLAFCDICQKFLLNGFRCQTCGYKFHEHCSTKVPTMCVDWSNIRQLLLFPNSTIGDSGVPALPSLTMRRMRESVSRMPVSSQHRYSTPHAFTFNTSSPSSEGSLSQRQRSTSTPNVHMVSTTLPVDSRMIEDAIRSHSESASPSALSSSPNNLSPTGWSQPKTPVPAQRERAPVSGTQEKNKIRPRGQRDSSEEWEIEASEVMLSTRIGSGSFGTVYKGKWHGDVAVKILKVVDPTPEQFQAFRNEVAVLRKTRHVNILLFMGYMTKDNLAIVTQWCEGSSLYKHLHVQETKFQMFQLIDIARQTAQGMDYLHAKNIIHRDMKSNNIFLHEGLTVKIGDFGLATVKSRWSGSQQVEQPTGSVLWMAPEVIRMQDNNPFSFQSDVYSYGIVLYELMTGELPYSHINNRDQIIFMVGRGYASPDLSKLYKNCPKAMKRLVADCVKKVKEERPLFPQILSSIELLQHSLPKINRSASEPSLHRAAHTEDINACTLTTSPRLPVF
C-Raf FL, sequence (P63104 whole entry partner): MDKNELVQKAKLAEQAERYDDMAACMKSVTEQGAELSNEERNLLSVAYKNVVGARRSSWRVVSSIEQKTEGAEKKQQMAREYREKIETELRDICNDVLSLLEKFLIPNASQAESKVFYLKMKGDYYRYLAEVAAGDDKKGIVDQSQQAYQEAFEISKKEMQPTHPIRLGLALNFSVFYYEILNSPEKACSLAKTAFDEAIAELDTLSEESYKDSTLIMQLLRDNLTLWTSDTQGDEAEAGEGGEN

Compared with `Cc1ccc(NC(=O)c2ccnc(C(C)(F)F)c2)cc1-c1cc(OCCO)nc(C2CCOCC2O)c1` (stereo not shown) [Example 243, 2-(1,1-difluoroethyl)-N-(3-(2-(2-hydroxyethoxy)-6-(3-hydroxytetrahydro-2H-pyran-4-yl)pyridin-4-yl)-4-methylphenyl) isonicotinamide], `Cc1ccc(NC(=O)c2ccnc(C(C)(F)F)c2)cc1-c1cc(OCCO)nc(C2(F)COC2)c1` [Example 54, 2-(1,1-difluoroethyl)-N-(3-(2-(3-fluorooxetan-3-yl)-6-(2-hydroxyethoxy)pyridin-4-yl)-4-methylphenyl)isonicotin-amide] is 4.7-fold lower in IC50: 1 nM for the first, 0.211 nM for the second.

Going from `CCOc1nnc(-c2cc(NC(=O)c3ccnc(C#N)c3)ccc2C)cc1C1CCOCC1` [Example 229, 2-cyano-N-(3-(6-ethoxy-5-(tetrahydro-2H-pyran-4-yl)pyridazin-3-yl)-4-methylphenyl)] to `CCOc1nnc(-c2cc(NC(=O)c3ccnc(C(C)(C)F)c3)ccc2C)cc1C1CCOCC1` [Example 238, N-(3-(6-ethoxy-5-(tetrahydro-2H-pyran-4-yl)pyridazin-3-yl)-4-methylphenyl)-2-(2-fluoropropan-2-yl) isonicotinamide], the IC50 falls from 0.7 nM to 0.07 nM (10-fold). The second is the more potent here.

Compared with `Cc1nc2cc(C3CCOCC3)cc(-c3cc(NC(=O)c4ccnc(C(C)(F)F)c4)ccc3C)c2[nH]1` [Example 222, 2-(1,1-difluoroethyl)-N-(4-methyl-3-(2-methyl-5-(tetrahydro-2H-pyran-4-yl)-1H-benzo[d]imidazol-7-yl)phenyl) isonicotinamide], `Cc1ccc(NC(=O)c2ccnc(C(F)(F)F)c2)cc1-c1cc(NCCO)nc(C2CCOCC2)c1` [Example 172, N-(3-(2-((2-hydroxyethyl)amino)-6-(tetrahydro-2H-pyran-4-yl)pyridin-4-yl)-4-methylphenyl)-2-(trifluoromethyl) isonicotinamide] is 5-fold higher in IC50: 0.4 nM for the first, 1.99 nM for the second.

`CCOc1nnc(-c2cc(NC(=O)c3ccnc(C4(C(F)(F)F)CC4)c3)ccc2C)cc1C1CCOCC1` [Example 227, N-(3-(6-ethoxy-5-(tetrahydro-2H-pyran-4-yl)pyridazin-3-yl)-4-methylphenyl)-2-(1-(trifluoromethyl)cyclopropyl) isonicotinamide] and `Cc1ccc(NC(=O)c2ccnc(C3(C(F)(F)F)CC3)c2)cc1-c1cc(OCCO)nc(C2CCOCC2)c1` [Example 259, N-(3-(2-(2-hydroxyethoxy)-6-(tetrahydro-2H-pyran-4-yl)pyridin-4-yl)-4-methylphenyl)-2-(1-(trifluoromethyl)cyclopropyl) isonicotinamide] are within 1.5-fold of each other in IC50: 0.2 nM for the first, 0.3 nM for the second.

`CCOc1ncc(-c2cc(NC(=O)c3cccc(C(F)(F)F)c3)cnc2C)cc1C1(C#N)CCOC1` (stereo not shown) [Example 171, N-(5′-(3-cyanotetrahydrofuran-3-yl)-6′-ethoxy-2-methyl-[3,3′-bipyridin]-5-yl)-3-(trifluoromethyl) benzamide] and `CCOc1ncc(-c2cc(NC(=O)c3ccnc(C(C)(C)F)c3)cnc2C)cc1C1(CF)CCOC1` (stereo not shown) [Example 165, N-(6′-ethoxy-5′-(3-(fluoromethyl)tetrahydrofuran-3-yl)-2-methyl-[3,3′-bipyridin]-5-yl)-2-(2-fluoropropan-2-yl)isonicotinamide] are the same in IC50: 1 nM for the first, 1 nM for the second.

First: Cc1ccc(NC(=O)c2ccnc(Cl)c2)cc1-c1cc(OCCO)nc(C2CCOCC2)c1 [Example 264, 2-chloro-N-(3-(2-(2-hydroxyethoxy)-6-(tetrahydro-2H-pyran-4-yl)pyridin-4-yl)-4-methylphenyl) isonicotinamide]
Second: Cc1ccc(NC(=O)c2cnc(C(F)(F)F)cn2)cc1-c1cc(OCCO)nc(C2CCOCC2)c1 [Example 262, N-(3-(2-(2-hydroxyethoxy)-6-(tetrahydro-2H-pyran-4-yl)pyridin-4-yl)-4-methylphenyl)-5-(trifluoromethyl) pyrazine-2-carboxamide]
The IC50 of the first is 5-fold lower: 0.2 nM for the first, 1 nM for the second. The first is the more potent here.

First: Cc1ccc(NC(=O)c2cncc(C(F)(F)F)c2)cc1-c1cc(OC[C@H](O)CO)nc(C2CCOCC2)c1 [Example 281, (R)-N-(3-(2-(2,3-dihydroxypropoxy)-6-(tetrahydro-2H-pyran-4-yl)pyridin-4-yl)-4-methylphenyl)-5-(trifluoromethyl) nicotinamide]
Second: Cc1ccc(NC(=O)c2cc(C(F)(F)F)cnn2)cc1-c1cc(OC[C@H](O)CO)nc(C2CCOCC2)c1 [Example 274]
The IC50 of the first is 1.7-fold higher: 0.05 nM for the first, 0.03 nM for the second.

Going from `Cc1ccc(NC(=O)c2ccnc(C(C)(F)F)c2)cc1-c1cnc(-c2cn(C)nc2C)c(C2(O)COC2)c1` [Example 12, 2-(1,1-difluoroethyl)-N-(3-(6-(1,3-dimethyl-1H-pyrazol-4-yl)-5-(3-hydroxyoxetan-3-yl)pyridin-3-yl)-4-methylphenyl)isonicotinamide] to `COc1ncc(-c2cc(NC(=O)c3cc(C(F)(F)F)cc(C(C)(C)N)n3)ccc2C)cc1C1(O)COC1` [Example 19, 6-(2-aminopropan-2-yl)-N-(3-(5-(3-hydroxyoxetan-3-yl)-6-methoxypyridin-3-yl)-4-methylphenyl)-4-(trifluoromethyl)picolinamide], the IC50 rises from 2 nM to 7 nM (3.5-fold).

Compared with `Cc1ncc(NC(=O)c2ccnc(C(C)(C)F)c2)cc1-c1cc(OCCO)nc(C2(F)COC2)c1` [Example 50, N-(2′-(3-fluorooxetan-3-yl)-6′-(2-hydroxyethoxy)-2-methyl-[3,4′-bipyridin]-5-yl)-2-(2-fluoropropan-2-yl)isonicotinamide], `Cc1ncc(NC(=O)c2ccnc(C(C)(C)F)c2)cc1-c1cc(OCCO)nc(C2(CF)COC2)c1` [Example 133, N-(2′-(3-(fluoromethyl)oxetan-3-yl)-6′-(2-hydroxyethoxy)-2-methyl-[3,4′-bipyridin]-5-yl)-2-(2-fluoropropan-2-yl)isonicotinamide] is 2.6-fold lower in IC50: 3.29 nM for the first, 1.28 nM for the second. The second is the more potent here.

Compared with `Cc1ccc(NC(=O)c2ccnc(C(F)(F)F)c2)cc1-c1cc(OCCO)nc(C2(CF)COC2)c1` [Example 57, N-(3-(2-(3-(fluoromethyl)oxetan-3-yl)-6-(2-hydroxyethoxy)pyridin-4-yl)-4-methylphenyl)-2-(trifluoromethyl)isonicotin-amide], `Cc1ncc(NC(=O)c2ccnc(C(F)(F)F)c2)cc1-c1cc(OCCO)nc(C2(F)COC2)c1` [Example 51, N-(2′-(3-fluorooxetan-3-yl)-6′-(2-hydroxyethoxy)-2-methyl-[3,4′-bipyridin]-5-yl)-2-(trifluoromethyl)isonicotin-amide] is 19-fold higher in IC50: 0.149 nM for the first, 2.79 nM for the second.

Compared with `Cc1ccc(NC(=O)c2ccnc(C(F)(F)F)c2)cc1-c1cc(N2CCOC2=O)nc(C2(O)CCOCC2)c1` [Example 286, N-(3-(2-(4-hydroxytetrahydro-2H-pyran-4-yl)-6-(2-oxooxazolidin-3-yl)pyridin-4-yl)-4-methylphenyl)-2-(trifluoromethyl)isonicotinamide], `CCC(F)(F)c1cc(C(=O)Nc2ccc(C)c(-c3cc(C4CCOCC4)nc(N4CCC(O)CC4)c3)c2)ccn1` [Example 188, 2-(1,1-difluoropropyl)-N-(3-(2-(4-hydroxypiperidin-1-yl)-6-(tetrahydro-2H-pyran-4-yl)pyridin-4-yl)-4-methylphenyl)-2-isonicotinamide] is 2.1-fold higher in IC50: 0.297 nM for the first, 0.621 nM for the second. The first is the more potent here.

First: Cc1ccc(NC(=O)c2cccc(C(F)(F)F)c2)cc1-c1cc(C2CCOCC2)nc(N2CCC(O)CC2)c1 [Example 186, N-(3-(2-(4-hydroxypiperidin-1-yl)-6-(tetrahydro-2H-pyran-4-yl)pyridin-4-yl)-4-methylphenyl)-3-(trifluoromethyl) benzamide]
Second: CCC(F)(F)c1cc(C(=O)Nc2cnc(C)c(-c3cc(C4CCOCC4)nc(N4CCC(O)CC4)c3)c2)ccn1 [Example 185, 2-(1,1-difluoropropyl)-N-(2′-(4-hydroxypiperidin-1-yl)-2-methyl-6′-(tetrahydro-2H-pyran-4-yl)-[3,4′-bipyridin]-5-yl) isonicotinamide]
The IC50 of the first is 2.5-fold higher: 0.83 nM for the first, 0.331 nM for the second.

Going from `Cc1ccc(NC(=O)NCCC(C)(C)C)cc1-c1cc(OCCO)nc(C2CCOCC2)c1` [Example 319, 1-(3,3-dimethylbutyl)-3-(3-(2-(2-hydroxyethoxy)-6-(tetrahydro-2H-pyran-4-yl)pyridin-4-yl)-4-methylphenyl)urea] to `Cc1ccc(NC(=O)c2ccnc(C(C)(C)C#N)c2)cc1-c1cc(NCCO)nc(C2CCOCC2)c1` [Example 175, 2-(2-cyanopropan-2-yl)-N-(3-(2-((2-hydroxyethyl)amino)-6-(tetrahydro-2H-pyran-4-yl)pyridin-4-yl)-4-methylphenyl) isonicotinamide], the IC50 rises from 0.1 nM to 0.83 nM (8.3-fold). The first is the more potent here.

First: Cc1ncc(NC(=O)c2cccc(C(F)(F)F)c2)cc1-c1cc(C2(F)COC2)c(=O)n(CCO)c1 [Example 46, N-(5′-(3-fluorooxetan-3-yl)-1′-(2-hydroxyethyl)-2-methyl-6′-oxo-1′,6′-dihydro-[3,3′-bipyridin]-5-yl)-3-(trifluoromethyl)benzamide]
Second: Cc1ncc(NC(=O)c2cccc(C(F)(F)F)c2)cc1-c1cc(OCCO)nc(C2(F)COC2)c1 [Example 52, N-(2′-(3-fluorooxetan-3-yl)-6′-(2-hydroxyethoxy)-2-methyl-[3,4′-bipyridin]-5-yl)-3-(trifluoromethyl)benzamide]
The IC50 of the first is 24-fold higher: 51.5 nM for the first, 2.15 nM for the second. The second is the more potent here.

Compared with `Cc1ncc(NC(=O)c2cccc(C(F)(F)F)c2)cc1-c1cc(C2(O)COC2)cc(C2(F)COC2)c1` [Example 139, N-(5-(3-(3-fluorooxetan-3-yl)-5-(3-hydroxyoxetan-3-yl)phenyl)-6-methylpyridin-3-yl)-3-(trifluoromethyl)benzamide], `Cc1ccc(NC(=O)c2cc(C(F)(F)F)ccn2)cc1-c1cc(OCCO)nc(C2(CF)CCOCC2)c1` [Example 214, N-(3-(2-(4-(fluoromethyl)tetrahydro-2H-pyran-4-yl)-6-(2-hydroxyethoxy)pyridin-4-yl)-4-methylphenyl)-4-(trifluoromethyl) picolinamide] is 3.9-fold lower in IC50: 1.18 nM for the first, 0.3 nM for the second. The second is the more potent here.

Work on `CCOc1nnc(-c2cc(NC(=O)c3cc(C(F)(F)F)c[nH]c3=O)ccc2C)cc1C1CCOCC1` [Example 226, N-(3-(6-ethoxy-5-(tetrahydro-2H-pyran-4-yl)pyridazin-3-yl)-4-methylphenyl)-2-oxo-5-(trifluoromethyl)-1,2-dihydropyridine-3-carboxamide] yielded an IC50 of 4 nM.
